{"source": "ChEMBL document CHEMBL1147370", "about": "“Selligueain A, a novel highly sweet proanthocyanidin from the rhizomes of Selliguea feei” (J Nat Prod, 1993)", "key": {"[1]": {"test_system": "Mus musculus", "test": "Acute toxicity in Swiss-Webster mouse at 1 g/kg, po", "format": "organism-based", "conditions": "in vivo, 1000 mg/kg"}, "[2]": {"test_system": "Mus musculus", "test": "Acute toxicity in Swiss-Webster mouse at 2 g/kg, po", "format": "organism-based", "conditions": "in vivo, 2000 mg/kg"}}}
{"smiles": "Oc1ccc([C@H]2Oc3c(c(O)cc4c3[C@H]3c5c(O)cc(O)cc5O[C@@](c5ccc(O)cc5)(O4)[C@@H]3O)[C@H](c3c(O)cc(O)c4c3O[C@H](c3ccc(O)cc3)[C@@H](O)C4)[C@H]2O)cc1", "note": "[SELLIGUEAIN A]", "values": [{"measurement": "Activity", "setting": "[1]", "result": "Non-toxic"}, {"measurement": "Activity", "setting": "[2]", "result": "Non-toxic"}]}
